From patent publication US12491186B2, “EGFR inhibitors for treating keratodermas” (INSERM (Institut National de la Santé et de la Recherche …, priority 2018, dated 2025)
Read-outs that look alike come from different tables or passages of the source.

Test system: OS patients

C#Cc1cccc(Nc2ncnc3cc(OCCOC)c(OCCOC)cc23)c1.Cl [Erlotinib]
overall clinical outcome (3 OS patients): dramatic improvement | pain outcome after three months (OS patients on Erlotinib, after three months): total disappearance and spontaneous pain drug removal | only persistent side effect (human, in vivo): moderate acne reaction | side effect leading to dose reduction (human, in vivo): abdominal pain and nausea | keratoderma regression completed at day (patient 2 (mild PPK), Erlotinib 50 mg): 30 days | reduction of pain (patient 3, Erlotinib started at 50 mg): later | reduction of pain (patients 1 and 2, Erlotinib started at 100 mg (patient 2 reduced to 50 mg)): rapid reduction of pain was observed within days | keratoderma regression completed at day (patients 1 and 3 (severe PPK)): 90 days
